# Measured values taken from US10301280B2 (Plexxikon Inc., priority 2012, dated 2019).
# Test system: BaF3-FL KIT D816V or BaF3-FL KIT V560G/D816V cell line
# Test: Cell-based assays of c-Kit mutant kinase activity (cell growth, ATPlite)
# Details: at least one of the c-kit cell assays of Example 26
# Protocol: The c-Kit mutant D816V inhibitors were assessed using an engineered BaF3-FL KIT D816V or BaF3-FL KIT V560G/D816V cell line. The BaF3-FL KIT D816V cell lines were created by introduction of KIT mutant (D816V) full length constructs that render the cells dependent on the introduced kinase for growth. Inhibitors of c-Kit mutant D816V kinase reduce or eliminate the mediated c-kit mutant D816V kinase activation, resulting in reduced cell proliferation of the BaF3-FL Kit mutant D816V cells. This inhibition is measured by the effect of compound concentration on cell growth to assess IC50 values. BaF3-FL KIT D816V cells were seeded at 1×10^4 cells per well of a 96 well cell culture plate in 50 μl of cell culture medium of RPMI Medium 1X (Invitrogen #11875-093) supplemented with 10% FBS (Invitrogen #10438), 1% Non Essential Amino Acids(Invitrogen #11140), 1% Penicillin Streptomycin (Invitrogen #15140), 1% L-Glutamine (Invitrogen #25030-081). Compounds were dissolved in DMSO at a concentration of 5 mM and were serially diluted 1:3 for a total of eight points and added to the cells to a final maximum concentration of 10 μM in 100 μl cell culture medium (final concentration 0.2% DMSO). Cells were also treated with Dasatinib as a positive control. The cells were incubated at 37° C., 5% CO2 for three days. ATPlite Buffer (Perkin Elmer #6016739) and substrate were equilibrated to room temperature, and enzyme/substrate Recombinant Firefly Luciferase/D-Luciferin was reconstituted. The cell plates were equilibrated to room temperature for 30 minutes, then lysed by addition of 25 uL per well of the ATPlite Reagent. The plate was mixed for 5 minutes on a plate shaker to lyse the cells. The plates were read on a Tecan Safire using Luminescence protocol modified to read 0.1 s per well. The luminescence reading assesses the ATP content, which correlates directly with cell number such that the reading as a function of compound concentration is used to determine the IC50 value.
# Plasmids P75635 and P75565 were engineered for mammalian cell expression. In both plasmids, full-length human v-kit Hardy-Zuckerman 4 feline sarcoma viral oncogene homolog gene (NCBI accession NM_000222, KIT, residues M1-V976) was subcloned into the pCI-Neo vector (Promega E1841). Plasmid P75635 contains the mutation of residue Aspartic acid 816 to Valine. Plasmid P75565 contains the double mutation of residues Valine 560 to Glycine and Aspartic acid 816 to Valine. The pCI-neo Mammalian Expression Vector carries the human cytomegalovirus (CMV) immediate-early enhancer/promoter region to promote constitutive expression of KIT and contains the neomycin phosphotransferase gene, a selectable marker.
# It is understood that the results of these assays may vary as assay conditions are varied. Inhibition levels determined under the conditions described herein represent a relative activity for the compounds tested under the specific conditions employed. The cell based assays are likely to show variability due to the complexity of the system and the sensitivity thereof to any changes in the assay conditions. […] In some instances, the compounds were not tested in all of the assays, or assay results were not valid.
row,IC50 [µM],SMILES
1,< 10,"O=C(Nc1cnc2[nH]c(-c3ccccc3)cc2c1)c1cccc2[nH]cnc12 [P-2300, N-(2-phenyl-1H-pyrrolo[2,3-b]pyridin-5-yl)-1H-benzimidazole-4-carboxamide]"
2,< 10,"Cc1[nH]nc(C(=O)Nc2cnc3[nH]c(-c4ccnc(NC(=O)C5CC5)c4)cc3c2)c1C [P-2206, N-(2-(2-(cyclopropanecarboxamido)pyridin-4-yl)-1H-pyrrolo[2,3-b]pyridin-5-yl)-4,5-dimethyl-1H-pyrazole-3-carboxamide]"
3,< 10,"Cc1n[nH]c(C(=O)Nc2cnc3[nH]c(-c4cccc(OC(F)(F)F)c4)cc3c2)c1C [P-2086, 3,4-dimethyl-N-[2-[3-(trifluoromethoxy)phenyl]-1H-pyrrolo[2,3-b]pyridin-5-yl]-1H-pyrazole-5-carboxamide]"
4,< 10,"COCCCOc1ccc(-c2cc3cc(NC(=O)c4[nH]nc(C)c4C)cnc3[nH]2)cc1 [P-2102, N-[2-[4-(3-methoxypropoxy)phenyl]-1H-pyrrolo[2,3-b]pyridin-5-yl]-3,4-dimethyl-1H-pyrazole-5-carboxamide]"
5,< 10,"Cc1[nH]nc(C(=O)Nc2cnc3[nH]c(-c4cccnc4OC(F)F)cc3c2)c1C [P-2240, N-(2-(2-(difluoromethoxy)pyridin-3-yl)-1H-pyrrolo[2,3-b]pyridin-5-yl)-4,5-dimethyl-1H-pyrazole-3-carboxamide]"
6,< 10,"COc1nccc(-c2cc3cc(NC(=O)c4[nH]nc(C)c4C)cnc3[nH]2)c1Cl [P-2171, N-[2-(3-chloro-2-methoxy-4-pyridyl)-1H-pyrrolo[2,3-b]pyridin-5-yl]-3,4-dimethyl-1H-pyrazole-5-carboxamide]"
7,< 10,"Cc1[nH]nc(C(=O)Nc2cnc3[nH]c(-c4ccnc(C(=O)NCCN5CCN(C)CC5)c4)cc3c2)c1C [P-2226, 4-(5-(4,5-dimethyl-1H-pyrazole-3-carboxamido)-1H-pyrrolo[2,3-b]pyridin-2-yl)-N-(2-(4-methylpiperazin-1-yl)ethyl)picolinamide]"
8,< 10,"OC(c1cccnc1)c1cnc2[nH]c(-c3ccccc3)cc2c1 (stereo not drawn) [P-2001, (2-phenyl-1H-pyrrolo[2,3-b]pyridin-5-yl)-(3-pyridyl)methanol]"
9,< 10,"Cc1[nH]nc(C(=O)Nc2cnc3[nH]c(-c4cncc(C5CC5)c4)cc3c2)c1C [P-2243, N-(2-(5-cyclopropylpyridin-3-yl)-1H-pyrrolo[2,3-b]pyridin-5-yl)-4,5-dimethyl-1H-pyrazole-3-carboxamide]"
10,< 10,"Cc1n[nH]c(C(=O)Nc2cnc3[nH]c(-c4cnn(C(F)F)c4)cc3c2)c1C [P-2140, N-[2-[1-(difluoromethyl)pyrazol-4-yl]-1H-pyrrolo[2,3-b]pyridin-5-yl]-3,4-dimethyl-1H-pyrazole-5-carboxamide]"
11,< 10,"CC(=O)N1CCC(n2cc(-c3cc4cc(NC(=O)c5n[nH]c(C)c5C)cnc4[nH]3)c(C)n2)CC1 [P-2202, N-(2-(1-(1-acetylpiperidin-4-yl)-3-methyl-1H-pyrazol-4-yl)-1H-pyrrolo[2,3-b]pyridin-5-yl)-4,5-dimethyl-1H-pyrazole-3-carboxamide]"
12,< 10,"Cc1n[nH]c(C(=O)Nc2cnc3[nH]c(-c4ccc(C#N)cc4)cc3c2)c1C [P-2092, N-[2-(4-cyanophenyl)-1H-pyrrolo[2,3-b]pyridin-5-yl]-3,4-dimethyl-1H-pyrazole-5-carboxamide]"
13,< 10,Cc1cc(Cl)ccc1-c1cc2cc(NC(=O)c3n[nH]c(C)c3C)cnc2[nH]1 [P-2258]
14,< 10,"Cc1n[nH]c(C(=O)Nc2cnc3[nH]c(-c4cccc(C#N)c4)cc3c2)c1C [P-2128, N-[2-(3-cyanophenyl)-1H-pyrrolo[2,3-b]pyridin-5-yl]-3,4-dimethyl-1H-pyrazole-5-carboxamide]"
15,< 10,"Cc1n[nH]c(C(=O)Nc2cnc3[nH]c(-c4cccc(F)c4)cc3c2)c1C [P-2094, N-[2-(3-fluorophenyl)-1H-pyrrolo[2,3-b]pyridin-5-yl]-3,4-dimethyl-1H-pyrazole-5-carboxamide]"
16,< 10,"Cc1[nH]nc(C(=O)Nc2cnc3[nH]c(-c4ccnc(NC(=O)C5CC5)c4Cl)cc3c2)c1C [P-2205, N-(2-(3-chloro-2-(cyclopropanecarboxamido)pyridin-4-yl)-1H-pyrrolo[2,3-b]pyridin-5-yl)-4,5-dimethyl-1H-pyrazole-3-carboxamide]"
17,< 10,"Cc1n[nH]c(C(=O)Nc2cnc3[nH]c(-c4cccc(C(=O)N5CCCC5)c4)cc3c2)c1C [P-2107, 3,4-dimethyl-N-[2-[3-(pyrrolidine-1-carbonyl)phenyl]-1H-pyrrolo[2,3-b]pyridin-5-yl]-1H-pyrazole-5-carboxamide]"
18,< 10,"O=C(Nc1cnc2[nH]c(-c3ccc(F)cc3)cc2c1)c1cc(C(F)(F)F)n[nH]1 [P-2156, N-[2-(4-fluorophenyl)-1H-pyrrolo[2,3-b]pyridin-5-yl]-3-(trifluoromethyl)-1H-pyrazole-5-carboxamide]"
19,< 10,"Cc1n[nH]c(C(=O)Nc2cnc3[nH]c(-c4ccncc4)cc3c2)c1C [P-2124, 3,4-dimethyl-N-[2-(4-pyridyl)-1H-pyrrolo[2,3-b]pyridin-5-yl]-1H-pyrazole-5-carboxamide]"
20,< 10,"COc1ccc(-c2cc3cc(NC(=O)c4[nH]nc(C)c4C)cnc3[nH]2)cc1 [P-2099, N-[2-(4-methoxyphenyl)-1H-pyrrolo[2,3-b]pyridin-5-yl]-3,4-dimethyl-1H-pyrazole-5-carboxamide]"
21,< 10,"Cc1n[nH]c(C(=O)N(C)c2cnc3[nH]c(-c4ccccc4)cc3c2)c1C [P-2304, N,3,4-trimethyl-N-(2-phenyl-1H-pyrrolo[2,3-b]pyridin-5-yl)-1H-pyrazole-5-carboxamide]"
22,< 10,"CCN(CC)C(=O)c1cc(-c2cc3cc(NC(=O)c4n[nH]c(C)c4C)cnc3[nH]2)ccn1 [P-2230, 4-(5-(4,5-dimethyl-1H-pyrazole-3-carboxamido)-1H-pyrrolo[2,3-b]pyridin-2-yl)-N,N-diethylpicolinamide]"
23,< 10,"Cc1[nH]nc(C(=O)Nc2cnc3[nH]c(-c4ccnc(C(=O)NCCN5CCOCC5)c4)cc3c2)c1C [P-2225, 4-(5-(4,5-dimethyl-1H-pyrazole-3-carboxamido)-1H-pyrrolo[2,3-b]pyridin-2-yl)-N-(2-morpholinoethyl)picolinamide]"
24,< 10,"Cc1[nH]nc(C(=O)Nc2cnc3[nH]c(-c4ccccc4)cc3c2)c1C(F)F [P-2235, 4-(difluoromethyl)-5-methyl-N-(2-phenyl-1H-pyrrolo[2,3-b]pyridin-5-yl)-1H-pyrazole-3-carboxamide]"
25,< 10,"Cc1cc2cc(NC(=O)c3[nH]nc(C)c3C)cnc2[nH]1 [P-2302, 3,4-dimethyl-N-(2-methyl-1H-pyrrolo[2,3-b]pyridin-5-yl)-1H-pyrazole-5-carboxamide]"
26,< 10,"Cc1[nH]nc(C(=O)Nc2cnc3[nH]c(-c4ccnc(C(=O)NCC(C)C)c4)cc3c2)c1C [P-2228, 4-(5-(4,5-dimethyl-1H-pyrazole-3-carboxamido)-1H-pyrrolo[2,3-b]pyridin-2-yl)-N-isobutylpicolinamide]"
27,< 10,"Cc1[nH]nc(C(=O)Nc2cnc3[nH]c(-c4ccnc(C(=O)NC(C)C)c4)cc3c2)c1C [P-2229, 4-(5-(4,5-dimethyl-1H-pyrazole-3-carboxamido)-1H-pyrrolo[2,3-b]pyridin-2-yl)-N-isopropylpicolinamide]"
28,< 10,"Cc1[nH]nc(C(=O)Nc2cnc3[nH]c(-c4cccc(F)c4OC(F)F)cc3c2)c1C [P-2264, N-(2-(2-(difluoromethoxy)-3-fluorophenyl)-1H-pyrrolo[2,3-b]pyridin-5-yl)-4,5-dimethyl-1H-pyrazole-3-carboxamide]"
29,< 10,"Cc1[nH]nc(C(=O)Nc2cnc3[nH]c(-c4ccnc(N5CCCC5)c4)cc3c2)c1C [P-2208, 4,5-dimethyl-N-(2-(2-(pyrrolidin-1-yl)pyridin-4-yl)-1H-pyrrolo[2,3-b]pyridin-5-yl)-1H-pyrazole-3-carboxamide]"
30,< 10,"Cc1[nH]nc(C(=O)Nc2cnc3[nH]c(-c4ccc(F)c(C)c4C)cc3c2)c1C [P-2262, N-(2-(4-fluoro-2,3-dimethylphenyl)-1H-pyrrolo[2,3-b]pyridin-5-yl)-4,5-dimethyl-1H-pyrazole-3-carboxamide]"
